We go through eight compounds from ChEMBL document CHEMBL1201862, “PubChem BioAssay data set” (2004).

The structures appear in SMILES notation.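 Step 1: Grow cells in 96-well plates. Step 2: Expose to compound for 48 hours at 5 concentrations. Step 3: Interpolate endpoints linearly; if unreached, use highest concentration. GI50 = concentration required for 50% inhibition of growth.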 Active and inactive are the calls of the source. Rule as the data show it: active = GI50 up to about 1.1 µM and inactive = higher. Peptide text beside a SMILES is read from it. * marks the point of attachment. Boc = CC(C)(C)OC(=O)*; OtBu = CC(C)(C)O* Some results are limits rather than exact numbers.

Some test systems named below: DU-145; EKVX; HOP-62; IGROV-1; LOX IMVI; M14; MDA-MB-231; MDA-N; Malme-3M; NCI-H460; OVCAR-3; OVCAR-4; RXF 393; SF-295; SK-MEL-28; SW-620; UACC-257; UACC-62; COLO 205; HL-60.
Holding throughout (experiment): NCI tumour cell line growth inhibition, 48 h

Take `Cn1c(=O)c2c(nc(NCCNc3nc4c(c(=O)n(C)c(=O)n4C)n3C)n2C)n(C)c1=O`: the GI50 in the experiment on DU-145, in the experiment with EKVX, with HOP-62, in the experiment on IGROV-1, in the experiment with LOX IMVI and in the experiment with M14 was > 100 µM (inactive) each time. Further, the GI50 in the experiment with MDA-MB-231, with MDA-N, in the experiment on Malme-3M, in the experiment with NCI-H460, with OVCAR-3 and with OVCAR-4 was > 100 µM (inactive) throughout. For the same compound, the GI50 in the experiment with RXF 393, in the experiment with SF-295, in the experiment with SK-MEL-28, in the experiment on SW-620, in the experiment on UACC-257 and in the experiment with UACC-62 was > 100 µM (inactive) throughout.

Take `CCOc1ccc(N/C(Cl)=C(Cl)\C(=C(\Nc2ccc(OCC)cc2)n2nnc3ccccc32)[N+](=O)[O-])cc1`: the GI50 is 7.38 µM (inactive) with COLO 205; 14.5 µM (inactive) in the experiment on DU-145; 12.2 µM (inactive) in the experiment with EKVX; 33.1 µM (inactive) in the experiment on HOP-62; 1.79 µM (inactive) in the experiment with IGROV-1; 1.65 µM (inactive) with LOX IMVI. The GI50 is 4.75 µM (inactive) in the experiment with M14; 6.08 µM (inactive) in the experiment with MDA-MB-231; 3.82 µM (inactive) in the experiment with MDA-N; 2.32 µM (inactive) with Malme-3M; 24.7 µM (inactive) in the experiment with NCI-H460; 4.12 µM (inactive) in the experiment on OVCAR-3. The GI50 was 10.3 µM (inactive) with OVCAR-4; 2.28 µM (inactive) with RXF 393; 22.1 µM (inactive) in the experiment on SF-295; 7.83 µM (inactive) in the experiment on SK-MEL-28; 2.32 µM (inactive) in the experiment on SW-620; 8.3 µM (inactive) in the experiment with UACC-257. For the same compound, the GI50 in the experiment with UACC-62 was 15.7 µM (inactive).

Consider `Cc1cn(C2OC(CO[Si](C)(C)C(C)(C)C)/C(=C\C#N)C2O[Si](C)(C)C(C)(C)C)c(=O)[nH]c1=O` (stereo unspecified), for which the GI50 with COLO 205 is 12.5 µM (inactive); with DU-145, 81.8 µM (inactive); with HOP-62, 63.7 µM (inactive); in the experiment on LOX IMVI, 19.5 µM (inactive); in the experiment on M14, > 100 µM (inactive); in the experiment on MDA-MB-231 it was > 100 µM (inactive). For the same compound, the GI50 was > 100 µM (inactive) in the experiment on MDA-N; 8.83 µM (inactive) in the experiment on NCI-H460; 7.73 µM (inactive) in the experiment with OVCAR-3; 58.3 µM (inactive) with OVCAR-4; 7.53 µM (inactive) in the experiment with RXF 393; 6.67 µM (inactive) with SF-295. For the same compound, the GI50 in the experiment with SK-MEL-28 is > 100 µM (inactive); in the experiment with SW-620 it was > 100 µM (inactive); in the experiment on UACC-257 it was 63.5 µM (inactive); with UACC-62, 44.4 µM (inactive).

For `CC(C)Sc1nncc(/C(N)=N/O)n1`, the GI50 in the experiment on COLO 205, in the experiment on DU-145, in the experiment with EKVX, with HOP-62, in the experiment with IGROV-1 and in the experiment with LOX IMVI was > 100 µM (inactive) throughout. Moreover, the GI50 in the experiment with M14, with MDA-MB-231, with MDA-N, in the experiment with Malme-3M, with NCI-H460 and with OVCAR-3 was > 100 µM (inactive) each time. Besides, the GI50 in the experiment with OVCAR-4, with RXF 393, with SF-295, with SK-MEL-28, with SW-620 and with UACC-257 was > 100 µM (inactive) in each case. The GI50 in the experiment on UACC-62 is > 100 µM (inactive).

With `CC(=O)OC1CCC2(C)C(CCC3C2CC(=O)C2(C)C3CC(N3CC3)C2C(C)=O)C1` (stereo unspecified), the GI50 in the experiment with COLO 205 is 15.8 µM (inactive); in the experiment with DU-145, 32.6 µM (inactive); in the experiment on EKVX it was 18.4 µM (inactive); in the experiment with HOP-62, 24.5 µM (inactive); in the experiment with IGROV-1, 13.6 µM (inactive); in the experiment on LOX IMVI, 5.33 µM (inactive). The GI50 with M14 is 20.2 µM (inactive); with MDA-MB-231, 16.7 µM (inactive); in the experiment on MDA-N it was 21.8 µM (inactive); in the experiment with Malme-3M, 18.7 µM (inactive); with NCI-H460 it was 12.4 µM (inactive); with OVCAR-3, 26.2 µM (inactive). For the same compound, the GI50 is 19.8 µM (inactive) in the experiment with OVCAR-4; 16.5 µM (inactive) with RXF 393; 5.71 µM (inactive) in the experiment on SF-295; 30.7 µM (inactive) with SK-MEL-28; 21.1 µM (inactive) in the experiment with SW-620; 17.3 µM (inactive) in the experiment on UACC-257. Besides, in the experiment with UACC-62, the GI50 was 16.2 µM (inactive).

Consider `CC(C)(C)OC(=O)CC(NC(=O)OC(C)(C)C)C(=O)NC(Cc1ccccc1)C(N)=O` (stereo unspecified) (Boc-Asp(OtBu)-Phe-NH2; configuration not given here), for which the GI50 in the experiment with COLO 205, in the experiment with DU-145, in the experiment with EKVX, in the experiment on HOP-62, in the experiment with IGROV-1 and in the experiment with LOX IMVI was > 100 µM (inactive) throughout. Besides, the GI50 in the experiment with M14, with MDA-MB-231, with MDA-N, in the experiment on Malme-3M, with NCI-H460 and in the experiment on OVCAR-3 was > 100 µM (inactive) throughout. For the same compound, the GI50 in the experiment on OVCAR-4, in the experiment with RXF 393, with SF-295, in the experiment with SK-MEL-28, in the experiment with SW-620 and in the experiment with UACC-257 was > 100 µM (inactive) in each case.

As to `Cc1ccc(C2SC(=N)Nc3c2c(C)nn3C(=O)c2ccccc2O)cc1` (stereo unspecified), the GI50 in the experiment on COLO 205 is > 10 µM (inactive); with DU-145 it was > 10 µM (inactive); with EKVX, > 10 µM (inactive); with HOP-62, > 10 µM (inactive); with IGROV-1, 2.81 µM (inactive); with LOX IMVI, > 10 µM (inactive). Besides, the GI50 is > 10 µM (inactive) in the experiment on M14; > 10 µM (inactive) in the experiment on MDA-MB-231; 7.14 µM (inactive) with MDA-N; > 10 µM (inactive) with Malme-3M; 7.57 µM (inactive) in the experiment with NCI-H460; > 10 µM (inactive) in the experiment on OVCAR-3. Also, the GI50 in the experiment on OVCAR-4 is > 10 µM (inactive); with RXF 393, > 10 µM (inactive); with SK-MEL-28, > 10 µM (inactive); in the experiment on SW-620 it was > 10 µM (inactive); with UACC-257, > 10 µM (inactive); in the experiment with UACC-62 it was 1.41 µM (inactive).

Consider `O=C1C=C(NCC(c2ccccc2)c2ccccc2)C(=O)c2ncccc21`, for which the GI50 is 9.89 µM (inactive) in the experiment with COLO 205; 1.96 µM (inactive) in the experiment with DU-145; 2.07 µM (inactive) with EKVX; 1.15 µM (inactive) in the experiment on HL-60; 1.57 µM (inactive) with HOP-62; 1.38 µM (inactive) with IGROV-1. For the same compound, the GI50 is 1.11 µM (active) in the experiment on LOX IMVI; 1.61 µM (inactive) in the experiment on M14; 2.67 µM (inactive) with MDA-MB-231; 1.6 µM (inactive) in the experiment on MDA-N; 1.36 µM (inactive) in the experiment on Malme-3M; 0.518 µM (active) with NCI-H460. The GI50 in the experiment with OVCAR-3 was 0.991 µM (active); in the experiment on OVCAR-4, 1.84 µM (inactive); with SF-295, 1.74 µM (inactive); in the experiment with SK-MEL-28, 2.85 µM (inactive); in the experiment with SW-620, 1.83 µM (inactive); in the experiment with UACC-257, 0.877 µM (active). Further, the GI50 in the experiment on UACC-62 was 1.39 µM (inactive).
